Values after ≈ are worked out from the molar mass of the structure shown.
Tests used:
[1] = target: Glycogen synthase kinase-3 beta (Homo sapiens, UniProt P49841); assay: Inhibition of GSK3beta (unknown origin) using GS-l peptide as substrate and [gamma-33P]-ATP after 10 min
[2] = system: Pseudomonas aeruginosa; assay: Antimicrobial activity against Pseudomonas aeruginosa ATCC 9027 by agar cup diffusion technique; type: functional
[3] = system: Staphylococcus aureus; assay: Antimicrobial activity against Staphylococcus aureus ATCC 6538 by agar cup diffusion technique; type: functional
[4] = system: Escherichia coli; assay: Antimicrobial activity against Escherichia coli NCTC 10418 by agar cup diffusion technique; type: functional
[5] = target: Glycogen synthase kinase-3 alpha (Homo sapiens, UniProt P49840); assay: Inhibition of GSK3alpha (unknown origin) using GS-l peptide as substrate and [gamma-33P]-ATP after 10 min
Chain of Glycogen synthase kinase-3 alpha (P49840 whole entry): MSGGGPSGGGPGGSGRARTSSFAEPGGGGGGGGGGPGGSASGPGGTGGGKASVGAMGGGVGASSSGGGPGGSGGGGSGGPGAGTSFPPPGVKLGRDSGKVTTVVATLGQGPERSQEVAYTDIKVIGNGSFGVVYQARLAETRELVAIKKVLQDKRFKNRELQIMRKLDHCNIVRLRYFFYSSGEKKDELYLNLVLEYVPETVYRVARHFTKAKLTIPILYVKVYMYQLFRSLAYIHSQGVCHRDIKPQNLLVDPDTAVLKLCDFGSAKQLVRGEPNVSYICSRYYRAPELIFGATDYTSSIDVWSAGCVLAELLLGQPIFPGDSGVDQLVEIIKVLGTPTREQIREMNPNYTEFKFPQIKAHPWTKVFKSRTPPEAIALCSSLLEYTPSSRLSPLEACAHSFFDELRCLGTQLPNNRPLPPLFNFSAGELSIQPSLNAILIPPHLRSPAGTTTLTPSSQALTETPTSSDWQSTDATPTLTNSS

[6] = target: Cyclin-dependent kinase 5/CDK5 activator 1 (Homo sapiens, UniProt Q00535); assay: Inhibition of CDK5/p25 (unknown origin) using histone H1 as substrate and [gamma-33P]-ATP after 10 min; type: protein-complex assay
Chain of Cyclin-dependent kinase 5/CDK5 activator 1 (Q00535 whole entry): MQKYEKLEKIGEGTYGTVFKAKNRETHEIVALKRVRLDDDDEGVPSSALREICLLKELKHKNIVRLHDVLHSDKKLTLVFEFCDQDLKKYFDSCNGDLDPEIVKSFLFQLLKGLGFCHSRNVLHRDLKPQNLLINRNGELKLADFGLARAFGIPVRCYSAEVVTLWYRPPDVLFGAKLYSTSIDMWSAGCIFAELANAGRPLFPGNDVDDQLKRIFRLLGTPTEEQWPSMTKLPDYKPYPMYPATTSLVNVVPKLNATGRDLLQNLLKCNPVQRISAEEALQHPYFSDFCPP
Chain of Cyclin-dependent kinase 5/CDK5 activator 1 (Q15078 whole entry, further chain): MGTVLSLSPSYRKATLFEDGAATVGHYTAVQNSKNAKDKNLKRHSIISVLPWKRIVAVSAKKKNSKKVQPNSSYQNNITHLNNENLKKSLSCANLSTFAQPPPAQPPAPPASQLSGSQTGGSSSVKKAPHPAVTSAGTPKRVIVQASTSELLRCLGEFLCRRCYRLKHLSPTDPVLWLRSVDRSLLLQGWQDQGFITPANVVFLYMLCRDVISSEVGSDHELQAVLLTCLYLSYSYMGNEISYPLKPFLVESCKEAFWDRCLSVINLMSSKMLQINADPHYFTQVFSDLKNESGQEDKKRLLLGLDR

[7] = target: T1, Cyclin-dependent kinase 1/cyclin B1 (Homo sapiens, UniProt P06493); assay: Inhibition of CDK1/cyclin B (unknown origin) using histone H1 as substrate and [gamma-33P]-ATP after 10 min; type: protein-complex assay
T1 sequence (P06493 whole entry, the tested form may be a part): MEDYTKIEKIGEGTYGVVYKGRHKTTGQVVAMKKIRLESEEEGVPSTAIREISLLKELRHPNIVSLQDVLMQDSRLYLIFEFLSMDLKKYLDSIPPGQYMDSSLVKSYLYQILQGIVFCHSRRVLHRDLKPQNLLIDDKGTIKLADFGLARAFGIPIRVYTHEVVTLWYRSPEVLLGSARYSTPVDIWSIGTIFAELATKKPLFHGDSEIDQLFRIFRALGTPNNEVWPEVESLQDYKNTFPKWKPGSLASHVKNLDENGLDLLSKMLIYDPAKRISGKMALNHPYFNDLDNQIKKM
T1 sequence (P14635 whole entry, further chain, the tested form may be a part): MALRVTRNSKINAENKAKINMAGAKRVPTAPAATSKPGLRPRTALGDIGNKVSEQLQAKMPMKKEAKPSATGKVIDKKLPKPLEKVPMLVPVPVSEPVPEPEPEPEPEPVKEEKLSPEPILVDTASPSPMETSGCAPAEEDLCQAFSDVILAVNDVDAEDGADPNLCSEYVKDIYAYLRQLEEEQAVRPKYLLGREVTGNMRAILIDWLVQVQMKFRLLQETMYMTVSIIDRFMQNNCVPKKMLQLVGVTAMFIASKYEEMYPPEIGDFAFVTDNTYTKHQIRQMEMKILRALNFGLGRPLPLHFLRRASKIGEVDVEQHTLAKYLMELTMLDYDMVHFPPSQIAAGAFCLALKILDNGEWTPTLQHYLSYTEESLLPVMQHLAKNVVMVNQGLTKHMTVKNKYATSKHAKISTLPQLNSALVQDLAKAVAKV

[8] = system: Candida albicans; assay: Antimicrobial activity against Candida albicans ATCC 10231 by agar cup diffusion technique; type: functional
[9] = target: Dual specificity tyrosine-phosphorylation-regulated kinase 1A (Homo sapiens, UniProt Q13627); assay: Inhibition of DYRK1A (unknown origin) using [gamma-33P]-ATP after 10 min
[10] = system: Candida albicans; assay: Antimicrobial activity against Candida albicans ATCC 10231 by two-fold serial dilution technique; type: functional
[11] = system: Staphylococcus aureus; assay: Antimicrobial activity against Staphylococcus aureus ATCC 6538 by two-fold serial dilution technique; type: functional
[12] = system: Pseudomonas aeruginosa; assay: Antimicrobial activity against Pseudomonas aeruginosa ATCC 9027 by two-fold serial dilution technique; type: functional
[13] = target: T1, Cyclin-dependent kinase 1/cyclin B1; assay: Inhibition of CDK1/cyclin B (unknown origin); type: protein-complex assay
[14] = system: Escherichia coli; assay: Antimicrobial activity against Escherichia coli NCTC 10418 by two-fold serial dilution technique; type: functional

Chain of Glycogen synthase kinase-3 beta (P49841 whole entry, the tested form may be a part): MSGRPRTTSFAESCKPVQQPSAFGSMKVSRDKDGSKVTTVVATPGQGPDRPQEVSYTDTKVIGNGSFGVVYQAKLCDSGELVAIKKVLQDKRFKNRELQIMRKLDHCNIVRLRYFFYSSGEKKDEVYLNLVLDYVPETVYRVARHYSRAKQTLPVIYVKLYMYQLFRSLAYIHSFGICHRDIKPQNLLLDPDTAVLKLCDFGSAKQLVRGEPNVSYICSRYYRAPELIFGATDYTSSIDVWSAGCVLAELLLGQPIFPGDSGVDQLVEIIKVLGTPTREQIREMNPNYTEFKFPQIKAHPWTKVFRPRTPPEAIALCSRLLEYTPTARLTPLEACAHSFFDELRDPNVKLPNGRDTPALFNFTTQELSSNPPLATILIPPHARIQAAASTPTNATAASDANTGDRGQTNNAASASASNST

Row | Structure (SMILES) | IC50 [1] | IC50 [5] | IC50 [6] | IC50 [7] | IC50 [9] | MIC [10] | MIC [11] | MIC [12] | IC50 [13] | diameter of the inhibition zone (DIZ) [2] | diameter of the inhibition zone (DIZ) [3] | diameter of the inhibition zone (DIZ) [4] | diameter of the inhibition zone (DIZ) [8] | MBC [10] | MBC [11] | MBC [12] | MBC [14]
1 | CCOc1ccc(S(=O)(=O)N2CCN(c3ccccc3)CC2)cc1-c1nc2ncccc2c(=O)[nH]1 | > 10 µM | > 10 µM | > 10 µM | > 10 µM | > 10 µM | 62.5 µg/mL (≈ 127 µM) |  |  |  | 15.5 mm | 12 mm | 16.5 mm | 25 mm | 250 µg/mL (≈ 509 µM) |  |  | 
2 | CCOc1ccc(S(=O)(=O)N2CCOCC2)cc1-c1nc2ncccc2c(=O)[nH]1 | > 10 µM | > 10 µM | > 10 µM | > 10 µM | > 10 µM |  |  |  |  | 15 mm | 10 mm | 17 mm | 17 mm |  |  |  | 
3 | O=c1[nH]cnc2c(-c3ccc(Br)cc3)n[nH]c12 | > 10 µM | > 10 µM | > 10 µM | > 10 µM | > 10 µM | 250 µg/mL (≈ 859 µM) |  |  |  | 17.5 mm |  | 15.5 mm | 28 mm | 250 µg/mL (≈ 859 µM) |  |  | 
4 | O=C1NN=C(c2ccccc2)/C(=N/Nc2ccccc2)C1=O | > 10 µM | > 10 µM | > 10 µM | > 10 µM | > 10 µM |  | 62.5 µg/mL (≈ 214 µM) | 125 µg/mL (≈ 428 µM) |  | 24 mm | 30 mm | 17 mm | 17.5 mm |  | 62.5 µg/mL (≈ 214 µM) | 125 µg/mL (≈ 428 µM) | 
5 | Clc1ccccc1C(c1ccccc1)(c1ccccc1)n1ccnc1 [CLOTRIMAZOLE] |  |  |  |  |  | 7.81 µg/mL (≈ 22.6 µM) |  |  |  |  |  |  | 28 mm | 15.6 µg/mL (≈ 45.3 µM) |  |  | 
6 | COc1ccc(CNc2ncnc3c(C(C)C)n[nH]c23)cc1O |  |  |  |  |  |  |  |  | 1.1 µM |  |  |  |  |  |  |  | 
7 | CC1(C)S[C@@H]2[C@H](NC(=O)[C@H](N)c3ccccc3)C(=O)N2[C@H]1C(=O)O [AMPICILLIN] |  |  |  |  |  |  | 3.9 µg/mL (≈ 11.2 µM) | 250 µg/mL (≈ 715 µM) |  | 18 mm | 40 mm | 26 mm |  |  | 15.6 µg/mL (≈ 44.7 µM) | 500 µg/mL (≈ 1430 µM) | 31.2 µg/mL (≈ 89.4 µM)

Continued, in another order:

Row | IC50 [1] | IC50 [5] | IC50 [6] | IC50 [7] | IC50 [9] | MIC [10] | MIC [11] | MIC [12] | IC50 [13] | Structure (SMILES) | diameter of the inhibition zone (DIZ) [2] | diameter of the inhibition zone (DIZ) [3] | diameter of the inhibition zone (DIZ) [4] | diameter of the inhibition zone (DIZ) [8] | MBC [10] | MBC [11] | MBC [12] | MBC [14]
8 | > 10 µM | > 10 µM | > 10 µM | > 10 µM | > 10 µM |  |  |  |  | CCOC(=O)C(=O)/C(=N\Nc1ccccc1)C(=O)c1ccccc1 | 16 mm |  | 16 mm | 16 mm |  |  |  | 
9 | > 10 µM | > 10 µM | > 10 µM | > 10 µM | > 10 µM |  | 125 µg/mL (≈ 352 µM) |  |  | CCOC(=O)c1[nH]nc(-c2ccc(Cl)cc2)c1/N=N/c1ccccc1 | 16 mm | 21 mm | 16.5 mm | 16 mm |  | 250 µg/mL (≈ 705 µM) |  | 
10 | > 10 µM | > 10 µM | > 10 µM | > 10 µM | > 10 µM |  |  |  |  | CCOC(=O)c1[nH]nc(-c2ccc(Br)cc2)c1N | 17 mm | 14 mm | 15.5 mm | 16 mm |  |  |  | 
11 | > 10 µM | > 10 µM | > 10 µM | > 10 µM | > 10 µM |  | 250 µg/mL (≈ 739 µM) |  |  | CCOC(=O)c1[nH]nc(-c2ccc(F)cc2)c1/N=N/c1ccccc1 | 17 mm | 20 mm | 16 mm | 16 mm |  | 250 µg/mL (≈ 739 µM) |  | 
12 | > 10 µM | > 10 µM | > 10 µM | > 10 µM | > 10 µM |  |  |  |  | O=c1[nH]cnc2c(-c3ccccc3)n[nH]c12 | 17.5 mm | 11 mm | 16 mm | 17 mm |  |  |  | 
13 | > 10 µM | > 10 µM | > 10 µM | > 10 µM | > 10 µM |  | 250 µg/mL (≈ 674 µM) |  |  | O=C1NN=C(c2ccc(Br)cc2)/C(=N/Nc2ccccc2)C1=O | 17.5 mm | 20 mm | 16 mm | 16.5 mm |  | 250 µg/mL (≈ 674 µM) |  | 
14 | > 10 µM | > 10 µM | > 10 µM | > 10 µM | > 10 µM |  |  |  |  | CCOC(=O)C(=O)/C(=N\Nc1ccccc1)C(=O)c1ccc(Cl)cc1 | 17 mm |  | 16 mm | 16 mm |  |  |  | 
15 | > 10 µM | > 10 µM | > 10 µM | > 10 µM | > 10 µM |  |  | 125 µg/mL (≈ 470 µM) |  | CCOC(=O)c1[nH]nc(-c2ccc(Cl)cc2)c1N | 23 mm | 10 mm | 17 mm | 17 mm |  |  | > 500 µg/mL | 

— ChEMBL document CHEMBL3046637, “Synthesis of new series of pyrazolo[4,3-d]pyrimidin-7-ones and pyrido[2,3-d]pyrimidin-4-ones for their bacterial and cyclin-dependent kinases (CDKs) inhibitory activities” (Med Chem Res, 2011)
